The values below come from BindingDB's records for doi:10.1074/jbc.M113.510974 (Albert Einstein College of Medicine, 2013).

As a reminder, the Ki is the dissociation constant of the complex between target and ligand, obtained from inhibition or displacement.

The target in one assay is T1, Sulfotransferase 2A1 (Homo sapiens, UniProt Q06520).
T1 sequence (Q06520 whole entry): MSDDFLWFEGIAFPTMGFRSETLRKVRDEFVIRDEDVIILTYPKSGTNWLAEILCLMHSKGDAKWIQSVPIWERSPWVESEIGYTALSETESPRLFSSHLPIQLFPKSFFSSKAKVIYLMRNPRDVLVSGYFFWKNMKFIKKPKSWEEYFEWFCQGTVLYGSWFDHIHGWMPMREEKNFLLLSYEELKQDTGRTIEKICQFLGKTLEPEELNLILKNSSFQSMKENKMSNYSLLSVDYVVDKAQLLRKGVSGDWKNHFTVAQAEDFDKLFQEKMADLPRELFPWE
Put plainly: Amoxapine and Protriptyline Inhibition Assay. The following applies: pH 7.5; 2 °C. How it is done:
(§1) Sulfation of PnP was monitored optically at λ = 415 nm (ε415 = 10.6 mM-1 cm-1 at pH 7.5 [Whittemore et al., Biochemistry, 24:2477-2482).

The target of the next assay is Sulfotransferase 1A1 (Homo sapiens, UniProt P50225). The assay is described as follows: Amoxapine and Protriptyline Inhibition Assay. To be noted: pH 7.5; 2 °C. How it is done:
as §1

Sequence of Sulfotransferase 1A1 (P50225 whole entry): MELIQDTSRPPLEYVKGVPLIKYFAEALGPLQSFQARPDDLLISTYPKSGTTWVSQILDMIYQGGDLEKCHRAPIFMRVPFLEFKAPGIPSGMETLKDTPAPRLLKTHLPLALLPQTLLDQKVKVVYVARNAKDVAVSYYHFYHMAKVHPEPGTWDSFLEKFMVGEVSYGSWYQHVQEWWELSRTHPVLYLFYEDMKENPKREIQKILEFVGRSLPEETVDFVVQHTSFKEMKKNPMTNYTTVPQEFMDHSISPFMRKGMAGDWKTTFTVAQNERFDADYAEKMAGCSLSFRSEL

`CNCCCC1c2ccccc2C=Cc2ccccc21` [3-(5H-dibenzo[a,d][7]annulen-5-yl)-N-methylpropan-1-amine]: the Ki on Sulfotransferase 2A1 worked out at 76 µM; at Sulfotransferase 1A1, 55 µM.
For `Clc1ccc2c(c1)C(N1CCNCC1)=Nc1ccccc1O2`, in that order: 125 µM and 35 µM.
